Assay [1] relates to HCT 116 (colorectal carcinoma cell line). The assay is described as follows: cells. The assay is classed as cell-based, human. Conditions: for IC50: Homo sapiens, MTT. The procedure: (§1) For biological studies three different cell lines were used: the NHDF-Neo cell line (Lonza, Poland), the HCT-116 cell line (American Type Culture Collection, ATCC, Manassas, VA, USA), and the MCF-7 cell line (purchased by the Maria Sklodowska-Curie Memorial Cancer Center and Institute of Oncology, Gliwice, Poland and gifted for our research). Cells were cultured in 96-well plates (Sarstedt, Nümbrecht, Germany) using RPMI 1640 or DMEM/F12 media (100 µL per well) supplemented with fetal bovine serum (FBS, EURx, Gdańsk, Poland), and with Antibiotic–Antimycotic Solution (Avantor, Gliwice, Poland). […] Stock solutions of the tested compounds were prepared in DMSO and stored under appropriate conditions. Immediately prior to the experiment, these solutions were diluted to the desired concentrations using a growth medium. In no dilution was the DMSO content higher than 1% v/v. The resulting solutions were then used to treat cells (100 µL per well). […] In parallel, the influence of copper ions on cellular proliferation was investigated. In this case, the procedure was analogous to the previously described one, with the difference that glycoconjugates were added in the culture medium with the addition of CuCl2. […] ACROS Organics) was applied following the manufacturer’s protocol. Absorbance of the formazan, formed during the test and dissolved in 100 µL of DMSO, was measured spectrophotometrically at 570 nm using a plate reader (Epoch, Bio-Tek, Winooski, VT, USA). The measured absorbance was analyzed to assess proliferation, where tested samples were compared with the untreated controls (100%). The results from MTT were presented as the mean of three experiments (biological replicates). For each experimental condition within a replicate, four technical repetitions were performed. Technical repetitions were averaged to obtain a single value per replicate. Statistical analyses were conducted using means of the biological replicates. The percentage of viable cells and the standard deviation (SD) were calculated in Excel (Microsoft Office 365, A3 for faculty), using the STDEV.S formula, which determines the standard deviation for a sample set. […] The results are expressed as the average value ± standard deviation (SD). To evaluate statistical significance, two-way analysis of variance (ANOVA) with replication was performed to assess the effects of compound type and concentration on cell proliferation. […] All statistical tests were performed in Excel. […] Two cancer cell lines were chosen for the study: HCT 116 (colorectal carcinoma cell line) and MCF-7 (human breast adenocarcinoma cell line). This selection was not random, as in both types of cancer cell lines overexpression of glucose and galactose transporters is observed. To determine if glycoconjugation enhanced the selectivity of the betulin derivatives, cytotoxicity tests on Normal Human Dermal Fibroblast-Neonatal cells (NHDF-Neo) were also conducted. […] The incubation time for individual cell lines varied from 24 to 72 h, due to differences in the doubling time of these cell lines.

Assay [2] relates to Normal Human Dermal Fibroblast-Neonatal cells (NHDF-Neo). Briefly: MTT cytotoxicity assay, healthy NHDF-Neo cells. The settings on record: 24 h, incubation 24 h. The assay is classed as cell-based. The procedure: as §1
In general terms: Tetrazolium assays rely on reduction of a dye to a coloured formazan, in cell work by metabolically active cells.

Assay [3] has as its system MCF-7 (human breast adenocarcinoma cell line). Briefly: MTT cytotoxicity assay, MCF-7 cells. The assay is classed as cell-based. The settings on record: for IC50: Homo sapiens, MCF7, 72 h, MTT, incubation 72 h. On the procedure: as §1, with “Poland). Cells were seeded and incubated for 24 h prior to treatment:” for “Poland).”, “proliferation. When significant main effects were observed (p < 0.05), pairwise comparisons between betulin (BN) and each analogue at corresponding concentrations were conducted using two-tailed unpaired t-tests.” for “proliferation.”, “conducted. The selection of this healthy cell line, so atypical in relation to the cancer cells tested, was based on the desire to compare the selectivity index determined for the currently obtained glycoconjugates with the results obtained for the betulin derivatives we described earlier and draw preliminary conclusions on structure-selectivity relationships.” for “conducted.”

Where [4] appears, read: HCT-116, 24 h, incubation 24 h, no copper added.
[5] abbreviates: HCT-116, 48 h, incubation 48 h, addition of CuCl2 at 20 µM.
Where [6] appears, read: HCT-116, 48 h, incubation 48 h, no copper added.

Each structure is given as a SMILES string.

By IC50 is commonly meant the concentration that inhibits the measured activity by half. Lower therefore signals inhibition by little substance. `C=C(C)[C@@H]1CC[C@]2(CO)CC[C@]3(C)[C@H](CC[C@@H]4[C@@]5(C)CC[C@H](O)C(C)(C)[C@@H]5CC[C@]43C)[C@@H]12` [BN, 3-Lup-20(29)-ene-3β,28-diol]: the IC50 in assay [1] (setting [4]) was 34.9 ± 4.26 µM; in assay [1] (setting [5]), 20.8 ± 2.71 µM; in assay [1] (setting [6]), 26 ± 5.4 µM; in assay [2] (addition of CuCl2 at 20 µM), 33.3 ± 5.97 µM; in assay [2] (no copper added), 34.9 ± 8.36 µM; in assay [3] (addition of CuCl2 at 20 µM), 13.9 ± 2.35 µM. The molecule further returned a concentration for half-maximal inhibition (IC50) in assay [3] (no copper added) of 17.9 ± 1.06 µM. In addition, the “SI HCT 116 (ratio of IC50 of NHDF-Neo to IC50 of cancer cells)” value in assay [1] (addition of CuCl2 at 20 µM) stood at 1.6; in assay [1] (no copper added) it was 1.3. Moreover, the “SI MCF-7 (ratio of IC50 of NHDF-Neo to IC50 of cancer cells)” value in assay [3] (addition of CuCl2 at 20 µM) worked out at 2.4; in assay [3] (no copper added), 1.9.

For `C=C(C)[C@@H]1CC[C@]2(COC(=O)CCC(=O)OCc3cn(C[C@H]4O[C@@H](OC(C)=O)[C@H](OC(C)=O)[C@@H](OC(C)=O)[C@H]4OC(C)=O)nn3)CC[C@]3(C)C(CCC4[C@@]5(C)CC[C@H](OC(C)=O)C(C)(C)C5CC[C@]43C)C12` (stereo partly drawn) [8a], the half-maximal inhibitory concentration (IC50) in assay [1] (setting [4]) was above 200 µM; in assay [1] (setting [5]), above 200 µM; in assay [1] (setting [6]), above 200 µM; in assay [2] (addition of CuCl2 at 20 µM) it was above 200 µM; in assay [2] (no copper added), above 200 µM; in assay [3] (addition of CuCl2 at 20 µM) it was 88.3 ± 3.31 µM. Besides, inhibition in assay [3] (no copper added) was half-maximal at 153 ± 1.98 µM (IC50). The “SI MCF-7 (ratio of IC50 of NHDF-Neo to IC50 of cancer cells)” value in assay [3] (addition of CuCl2 at 20 µM) is recorded as above 2.3; in assay [3] (no copper added) it was above 1.3.

Consider `C=C(C)[C@@H]1CC[C@]2(COC(=O)CCC(=O)OCc3cn([C@@H]4O[C@H](COCc5ccccc5)[C@H](OCc5ccccc5)[C@H](OCc5ccccc5)[C@H]4OCc4ccccc4)nn3)CC[C@]3(C)C(CCC4[C@@]5(C)CC[C@H](OC(C)=O)C(C)(C)C5CC[C@]43C)C12` (stereo partly drawn) [6b], for which the IC50 is above 200 µM in assay [1] (setting [4]), above 200 µM in assay [1] (setting [6]), above 200 µM in assay [2] (no copper added) and 184 ± 7.59 µM in assay [3] (no copper added). In assay [3] (no copper added), the “SI MCF-7 (ratio of IC50 of NHDF-Neo to IC50 of cancer cells)” value is above 1.1.

Take `C=C(C)[C@@H]1CC[C@]2(COC(=O)CCC(=O)OCc3cn([C@@H]4O[C@H](COC(C)=O)[C@@H](OC(C)=O)[C@H](OC(C)=O)[C@H]4OC(C)=O)nn3)CC[C@]3(C)C(CCC4[C@@]5(C)CC[C@H](OC(C)=O)C(C)(C)C5CC[C@]43C)C12` (stereo partly drawn) [5a]: the IC50 was above 200 µM in assay [1] (setting [4]); above 200 µM in assay [1] (setting [5]); above 200 µM in assay [1] (setting [6]); above 200 µM in assay [2] (addition of CuCl2 at 20 µM); above 200 µM in assay [2] (no copper added); 109 ± 5.85 µM in assay [3] (addition of CuCl2 at 20 µM). In assay [3] (no copper added), this molecule registered a half-maximal inhibitory concentration (IC50) of 163 ± 7.65 µM. Also, the “SI MCF-7 (ratio of IC50 of NHDF-Neo to IC50 of cancer cells)” value in assay [3] (addition of CuCl2 at 20 µM) was above 1.8; in assay [3] (no copper added), above 1.2.

With `C=C(C)[C@@H]1CC[C@]2(COC(=O)CCC(=O)OCc3cn([C@@H]4O[C@H](COC(C)=O)[C@H](OC(C)=O)[C@H](OC(C)=O)[C@H]4OC(C)=O)nn3)CC[C@]3(C)C(CCC4[C@@]5(C)CC[C@H](OC(C)=O)C(C)(C)C5CC[C@]43C)C12` (stereo partly drawn) [6a], the IC50 was above 200 µM in assay [1] (setting [4]); above 200 µM in assay [1] (setting [5]); above 200 µM in assay [1] (setting [6]); above 200 µM in assay [2] (addition of CuCl2 at 20 µM); above 200 µM in assay [2] (no copper added); 59.8 ± 1.85 µM in assay [3] (addition of CuCl2 at 20 µM). Also, 123 ± 6.84 µM corresponded to half-maximal inhibition in assay [3] (no copper added) (IC50). The “SI MCF-7 (ratio of IC50 of NHDF-Neo to IC50 of cancer cells)” value in assay [3] (no copper added) is above 1.6.

On to `C=C(C)[C@@H]1CC[C@]2(COC(=O)CCC(=O)OCc3cn(CCCO[C@@H]4O[C@H](COC(C)=O)[C@@H](OC(C)=O)[C@H](OC(C)=O)[C@H]4OC(C)=O)nn3)CC[C@]3(C)C(CCC4[C@@]5(C)CC[C@H](OC(C)=O)C(C)(C)C5CC[C@]43C)C12` (stereo partly drawn) [7b], for which the concentration for half-maximal inhibition (IC50) is above 200 µM in assay [1] (setting [4]); 112.5 ± 0.57 µM in assay [1] (setting [5]); above 200 µM in assay [1] (setting [6]); above 200 µM in assay [2] (addition of CuCl2 at 20 µM); above 200 µM in assay [2] (no copper added); 124 ± 1.64 µM in assay [3] (addition of CuCl2 at 20 µM). Further, the 50% inhibitory concentration (IC50) in assay [3] (no copper added) amounted to 152 ± 2.91 µM. Also, in assay [1] (addition of CuCl2 at 20 µM), the “SI HCT 116 (ratio of IC50 of NHDF-Neo to IC50 of cancer cells)” value was above 1.8. In addition, the “SI MCF-7 (ratio of IC50 of NHDF-Neo to IC50 of cancer cells)” value was above 1.6 in assay [3] (addition of CuCl2 at 20 µM) and above 1.3 in assay [3] (no copper added).

In the case of `C=C(C)[C@@H]1CC[C@]2(COC(=O)CCC(=O)OCc3cn(CCO[C@@H]4O[C@H](COC(C)=O)[C@@H](OC(C)=O)[C@H](OC(C)=O)[C@H]4OC(C)=O)nn3)CC[C@]3(C)C(CCC4[C@@]5(C)CC[C@H](O)C(C)(C)C5CC[C@]43C)C12` (stereo partly drawn) [7c], the IC50 in assay [1] (setting [4]) was above 200 µM; in assay [1] (setting [5]), above 200 µM; in assay [1] (setting [6]), above 200 µM; in assay [2] (addition of CuCl2 at 20 µM), above 200 µM; in assay [2] (no copper added) it was above 200 µM; in assay [3] (addition of CuCl2 at 20 µM), 118 ± 1.42 µM. This molecule returned an IC50 in assay [3] (no copper added) of 135 ± 7.92 µM. Also, the “SI MCF-7 (ratio of IC50 of NHDF-Neo to IC50 of cancer cells)” value is above 1.7 in assay [3] (addition of CuCl2 at 20 µM) and above 1.5 in assay [3] (no copper added).

Regarding `C=C(C)[C@@H]1CC[C@]2(COC(=O)CCC(=O)OCc3cn([C@@H]4O[C@H](COCc5ccccc5)[C@@H](OCc5ccccc5)[C@H](OCc5ccccc5)[C@H]4OCc4ccccc4)nn3)CC[C@]3(C)C(CCC4[C@@]5(C)CC[C@H](OC(C)=O)C(C)(C)C5CC[C@]43C)C12` (stereo partly drawn) [5b], the IC50 in assay [1] (setting [4]) was above 200 µM; in assay [1] (setting [6]), above 200 µM; in assay [2] (no copper added), above 200 µM; in assay [3] (no copper added) it was 168 ± 11.7 µM. In assay [3] (no copper added), the “SI MCF-7 (ratio of IC50 of NHDF-Neo to IC50 of cancer cells)” value is above 1.2.

On to `COc1cccc2c1C(=O)c1c(O)c3c(c(O)c1C2=O)C[C@@](O)(C(=O)CO)C[C@@H]3O[C@H]1C[C@H](N)[C@H](O)[C@H](C)O1` [Doxorubicin, doxorubicin, reference compound], for which the IC50 in assay [1] (setting [4]) is 13.2 ± 0.58 µM; in assay [1] (setting [6]) it was 1.89 ± 0.19 µM; in assay [3] (no copper added), 0.29 ± 0.04 µM.

(Values after article PMC12153776, “Synthesis and Preliminary Cytotoxicity Evaluation of 3-Lup-20(29)-Ene-3β,28-Diol Glycoconjugates Containing a Succinic Linker and a 1,2,3-Triazole Ring” (Cancers, 2025).)
